SMILES strings stand for the structures. Where only a bound is given, the exact number is not on record here.

Assay type in all cases: biochemical
In test [1] the target is KAT7+JADE1+EAF6+ING5 4 protein complex (Homo sapiens (Human), UniProt O95251). Nature of the test: KAT7 JADE1 assay (SAMDI-MS acetylation of H3 1-21 peptide). Particulars: Morrison equation fit; replicate number in parentheses; read-out: KAT7 JADE1 Ki (nM) (replicate number).
Another test concerns the target KAT5 Full length enzyme (Homo sapiens (Human), UniProt Q92993). As to the kind of experiment: KAT5 assay (SAMDI-MS acetylation of H4 1-21 peptide). Particulars: Morrison equation fit; replicate number in parentheses; read-out: KAT5 Ki (nM) (replicate number).
In the next test the target is KAT6A Full length enzyme (Homo sapiens (Human), UniProt Q92794). Nature of the test: KAT6A assay (SAMDI-MS acetylation of H3 1-21 peptide). Particulars: Morrison equation fit; replicate number in parentheses; read-out: KAT6A Ki (nM) (replicate number).
The target of another test is KAT8 Full length enzyme (Homo sapiens (Human), UniProt Q9H7Z6). As to the kind of experiment: KAT8 assay (SAMDI-MS acetylation of H3 1-21 peptide). Particulars: Morrison equation fit; replicate number in parentheses; read-out: KAT8 Ki (nM) (replicate number).
KAT8 Full length enzyme, sequence (Q9H7Z6 whole entry): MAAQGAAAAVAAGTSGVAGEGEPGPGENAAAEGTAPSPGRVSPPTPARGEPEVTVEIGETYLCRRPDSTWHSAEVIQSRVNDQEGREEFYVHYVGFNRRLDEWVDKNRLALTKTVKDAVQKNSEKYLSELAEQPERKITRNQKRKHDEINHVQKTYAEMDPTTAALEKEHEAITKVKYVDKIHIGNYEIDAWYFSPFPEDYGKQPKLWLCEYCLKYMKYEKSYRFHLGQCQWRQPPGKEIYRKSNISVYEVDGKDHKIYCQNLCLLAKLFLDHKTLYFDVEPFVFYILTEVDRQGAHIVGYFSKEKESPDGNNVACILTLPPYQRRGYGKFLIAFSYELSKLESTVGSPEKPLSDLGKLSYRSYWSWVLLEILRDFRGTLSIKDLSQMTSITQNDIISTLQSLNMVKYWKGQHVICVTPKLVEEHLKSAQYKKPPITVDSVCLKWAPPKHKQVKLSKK

KAT6A Full length enzyme, sequence (Q92794 other isoform, or with tags, fused parts or gaps): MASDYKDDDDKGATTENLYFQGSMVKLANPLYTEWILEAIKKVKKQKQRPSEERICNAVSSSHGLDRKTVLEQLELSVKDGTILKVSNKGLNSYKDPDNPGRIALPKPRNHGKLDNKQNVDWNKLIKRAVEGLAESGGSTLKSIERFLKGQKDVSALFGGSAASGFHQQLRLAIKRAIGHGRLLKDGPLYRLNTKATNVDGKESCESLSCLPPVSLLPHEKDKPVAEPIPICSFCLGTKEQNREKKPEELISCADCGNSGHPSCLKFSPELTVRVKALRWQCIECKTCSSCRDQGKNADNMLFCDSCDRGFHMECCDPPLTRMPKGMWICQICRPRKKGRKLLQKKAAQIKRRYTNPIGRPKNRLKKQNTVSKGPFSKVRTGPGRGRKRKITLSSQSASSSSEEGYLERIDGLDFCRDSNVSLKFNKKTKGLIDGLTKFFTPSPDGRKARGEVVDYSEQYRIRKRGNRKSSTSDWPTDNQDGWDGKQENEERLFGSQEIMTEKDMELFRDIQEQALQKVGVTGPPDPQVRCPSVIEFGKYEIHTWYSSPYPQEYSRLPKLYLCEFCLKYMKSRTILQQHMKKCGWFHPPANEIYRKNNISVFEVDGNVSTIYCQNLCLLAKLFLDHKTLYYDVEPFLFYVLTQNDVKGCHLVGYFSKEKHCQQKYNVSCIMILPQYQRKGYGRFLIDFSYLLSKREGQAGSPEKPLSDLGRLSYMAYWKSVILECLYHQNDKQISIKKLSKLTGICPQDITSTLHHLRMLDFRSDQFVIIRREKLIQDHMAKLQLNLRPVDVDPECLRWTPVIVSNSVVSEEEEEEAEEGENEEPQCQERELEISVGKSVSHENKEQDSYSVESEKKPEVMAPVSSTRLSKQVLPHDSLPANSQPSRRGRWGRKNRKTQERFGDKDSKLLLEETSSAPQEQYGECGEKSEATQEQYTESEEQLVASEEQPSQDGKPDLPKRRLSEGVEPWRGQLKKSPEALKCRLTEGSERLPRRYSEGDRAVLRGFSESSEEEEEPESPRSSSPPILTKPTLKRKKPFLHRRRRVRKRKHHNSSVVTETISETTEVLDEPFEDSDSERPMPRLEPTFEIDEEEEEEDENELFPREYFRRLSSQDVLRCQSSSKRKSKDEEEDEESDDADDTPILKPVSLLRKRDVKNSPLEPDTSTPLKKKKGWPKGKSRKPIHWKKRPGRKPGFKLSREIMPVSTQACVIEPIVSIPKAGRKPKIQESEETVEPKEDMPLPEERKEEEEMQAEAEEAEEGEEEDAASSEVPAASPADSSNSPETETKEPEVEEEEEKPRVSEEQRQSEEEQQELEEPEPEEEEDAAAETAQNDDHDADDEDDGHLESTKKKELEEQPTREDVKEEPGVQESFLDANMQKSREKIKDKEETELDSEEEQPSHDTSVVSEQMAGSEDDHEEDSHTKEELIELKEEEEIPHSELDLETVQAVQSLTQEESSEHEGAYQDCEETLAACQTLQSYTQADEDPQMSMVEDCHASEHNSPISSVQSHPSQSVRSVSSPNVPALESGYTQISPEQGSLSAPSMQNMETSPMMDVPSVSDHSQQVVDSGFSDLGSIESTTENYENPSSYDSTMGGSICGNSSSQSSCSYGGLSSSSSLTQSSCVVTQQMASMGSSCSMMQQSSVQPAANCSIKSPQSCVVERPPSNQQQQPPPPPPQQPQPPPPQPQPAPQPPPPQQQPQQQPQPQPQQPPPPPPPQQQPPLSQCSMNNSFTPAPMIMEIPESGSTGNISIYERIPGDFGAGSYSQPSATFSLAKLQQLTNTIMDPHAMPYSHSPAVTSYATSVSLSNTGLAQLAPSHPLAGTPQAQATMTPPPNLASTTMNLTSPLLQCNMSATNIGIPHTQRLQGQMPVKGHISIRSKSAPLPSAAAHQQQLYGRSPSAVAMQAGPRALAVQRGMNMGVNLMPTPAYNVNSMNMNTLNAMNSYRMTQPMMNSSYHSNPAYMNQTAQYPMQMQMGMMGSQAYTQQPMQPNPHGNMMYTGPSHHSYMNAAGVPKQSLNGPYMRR
KAT5 Full length enzyme, sequence (Q92993 whole entry): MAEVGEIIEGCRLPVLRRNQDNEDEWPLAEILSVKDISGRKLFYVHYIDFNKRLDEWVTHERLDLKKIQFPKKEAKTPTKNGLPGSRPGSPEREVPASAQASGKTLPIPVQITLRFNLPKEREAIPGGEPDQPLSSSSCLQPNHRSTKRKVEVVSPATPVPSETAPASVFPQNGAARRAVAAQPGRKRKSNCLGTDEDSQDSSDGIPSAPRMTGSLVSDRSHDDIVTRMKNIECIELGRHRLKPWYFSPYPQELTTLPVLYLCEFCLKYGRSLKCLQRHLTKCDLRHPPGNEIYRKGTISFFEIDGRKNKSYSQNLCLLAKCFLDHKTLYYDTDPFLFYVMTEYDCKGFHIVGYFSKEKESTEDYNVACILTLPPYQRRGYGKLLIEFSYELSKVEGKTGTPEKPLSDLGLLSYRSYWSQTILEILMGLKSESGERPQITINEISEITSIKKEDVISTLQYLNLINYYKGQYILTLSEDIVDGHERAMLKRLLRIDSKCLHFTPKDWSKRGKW

The term Ki denotes the equilibrium dissociation constant of an inhibitor or competing ligand from its target. `COc1cc2c(NS(=O)(=O)c3c(OC)cc(C4CN(C)CCO4)cc3OC)noc2cc1Nc1cc(C2CC2)n[nH]1` (single isomer, unassigned) [Example 153, N-{6-[(3-cyclopropyl-1 H-pyrazol-5-yl)amino]-5-methoxy-1,2-benzoxazol-3-yl}-2,6-dimethoxy-4-(4-methylmorpholin-2-yl)benzene-1-sulfonamide]: the Ki was determined as 5.7 nM in test [1], 17.4 nM at KAT5 Full length enzyme, 0.8 nM on KAT6A Full length enzyme and 571 nM on KAT8 Full length enzyme.

For `COc1cc2c(NS(=O)(=O)c3c(OC)cc(C4COCCN4C)cc3OC)noc2cc1Nc1cc(C2CC2)[nH]n1` (single isomer, unassigned) [Example 180, N-{6-[(5-cyclopropyl-1 H-pyrazol-3-yl)amino]-5-methoxy-1,2-benzoxazol-3-yl}-2,6-dimethoxy-4-(4-methylmorpholin-3-yl)benzene-1-sulfonamide], the Ki was 6.5 nM in test [1], 94.8 nM at KAT5 Full length enzyme, 1.7 nM at KAT6A Full length enzyme and 3370 nM at KAT8 Full length enzyme.

Consider `COc1cc2c(NS(=O)(=O)c3c(OC)cc(C(C)N4CC(F)C4)cc3OC)noc2cc1Nc1cc(C2CC2)[nH]n1` (single isomer, unassigned) [Example 209, N-{6-[(5-cyclopropyl-1 H-pyrazol-3-yl)amino]-5-methoxy-1,2-benzoxazol-3-yl}-4-[1-(3-fluoroazetidin-1-yl)ethyl]-2,6-dimethoxybenzene-1-sulfonamide], for which the Ki in test [1] is 7.7 nM; at KAT5 Full length enzyme, 106 nM; on KAT6A Full length enzyme it was 1.4 nM; at KAT8 Full length enzyme it was 2400 nM.

Consider `COc1cc2c(NS(=O)(=O)c3c(OC)cc(-c4ccn(C)n4)cc3OC)noc2cc1Nc1cc(C2CC2C)n[nH]1` (single isomer, unassigned) [Example 242, 2,6-dimethoxy-N-(5-methoxy-6-{[3-(2-methylcyclopropyl)-1 H-pyrazol-5-yl]amino}-1,2-benzoxazol-3-yl)-4-(1-methyl-1H-pyrazol-3-yl)benzene-1-sulfonamide], for which the Ki in test [1] is 9.2 nM; at KAT5 Full length enzyme, 34 nM; at KAT6A Full length enzyme it was 0.9 nM; on KAT8 Full length enzyme it was 439 nM.

For the compound `COc1cc2c(NS(=O)(=O)c3c(OC)cc(-c4cccnc4)cc3OC)noc2cc1Nc1cc(C2CC2)n[nH]1` [Example 07, N-{6-[(3-cyclopropyl-1H-pyrazol-5-yl)amino]-5-methoxy-1,2-benzoxazol-3-yl}-2,6-dimethoxy-4-(pyridin-3-yl)benzene-1-sulfonamide], the Ki in test [1] stood at 4.2 nM; at KAT5 Full length enzyme it was 53.6 nM; on KAT6A Full length enzyme, 0.6 nM; on KAT8 Full length enzyme, 457 nM.

For `COc1cc2c(NS(=O)(=O)c3c(OC)cc(-c4ncco4)cc3OC)noc2cc1Nc1cc(C2CC2)n[nH]1` [Example 08, N-{6-[(3-cyclopropyl-1H-pyrazol-5-yl)amino]-5-methoxy-1,2-benzoxazol-3-yl}-2,6-dimethoxy-4-(1,3-oxazol-2-yl)benzene-1-sulfonamide], the Ki in test [1] was determined as 12.8 nM; at KAT5 Full length enzyme, 46.9 nM; at KAT6A Full length enzyme it was 1.2 nM; on KAT8 Full length enzyme, 1620 nM.

Turning to `COc1cccc(OC)c1S(=O)(=O)Nc1noc2cc(NC3CCC3)cc(OC)c12` [Example 10, N-[6-(cyclobutylamino)-4-methoxy-1,2-benzoxazol-3-yl]-2,6-dimethoxybenzene-1-sulfonamide], the Ki came out at 727 nM in test [1], 11800 nM at KAT5 Full length enzyme, 3.1 nM on KAT6A Full length enzyme and 11500 nM at KAT8 Full length enzyme.

Consider `COc1cccc(OC)c1S(=O)(=O)Nc1noc2cc(N[C@H]3CCOC3)cc(OC)c12` [Example 14, 2,6-dimethoxy-N-(4-methoxy-6-{[(3S)-oxolan-3-yl]amino}-1,2-benzoxazol-3-yl)benzene-1-sulfonamide], for which the Ki was greater than 2340 nM in test [1], 44900 nM at KAT5 Full length enzyme, 10.1 nM on KAT6A Full length enzyme and greater than 16300 nM on KAT8 Full length enzyme.

Regarding `COc1cccc(OC)c1S(=O)(=O)Nc1noc2cc(Nc3ccon3)cc(OC)c12` [Example 16, 2,6-dimethoxy-N-{4-methoxy-6-[(1,2-oxazol-3-yl)amino]-1,2-benzoxazol-3-yl}benzene-1-sulfonamide], the Ki in test [1] turned out to be 702 nM; at KAT5 Full length enzyme, 1650 nM; on KAT6A Full length enzyme it was 0.2 nM; at KAT8 Full length enzyme it was 2250 nM.

With `COc1cccc(OC)c1S(=O)(=O)Nc1noc2cc(Nc3ccccn3)cc(OC)c12` [Example 18, 2,6-dimethoxy-N-{4-methoxy-6-[(pyridin-2-yl)amino]-1,2-benzoxazol-3-yl}benzene-1-sulfonamide], the Ki in test [1] was found to be 245 nM; at KAT5 Full length enzyme it was 5420 nM; at KAT6A Full length enzyme it was 1 nM; on KAT8 Full length enzyme, 5960 nM.

In the case of `COc1cccc(OC)c1S(=O)(=O)Nc1noc2cc(Nc3cccnn3)cc(OC)c12` [Example 19, 2,6-dimethoxy-N-{4-methoxy-6-[(pyridazin-3-yl)amino]-1,2-benzoxazol-3-yl}benzene-1-sulfonamide], the Ki is 516 nM in test [1], 15700 nM at KAT5 Full length enzyme, 30.8 nM at KAT6A Full length enzyme and greater than 16300 nM at KAT8 Full length enzyme.

On to `COc1cccc(OC)c1S(=O)(=O)Nc1noc2cc(Nc3ncccn3)cc(OC)c12` [Example 20, 2,6-dimethoxy-N-{4-methoxy-6-[(pyrimidin-2-yl)amino]-1,2-benzoxazol-3-yl}benzene-1-sulfonamide], for which the Ki in test [1] turned out to be 1540 nM; on KAT5 Full length enzyme, 9380 nM; at KAT6A Full length enzyme, 5.3 nM; at KAT8 Full length enzyme, 14600 nM.

Take `COc1cc2c(NS(=O)(=O)c3c(OC)cccc3OC)noc2cc1Nc1cc(C(C)(F)F)n[nH]1` [Example 66, N-(6-{[3-(1,1-difluoroethyl)-1H-pyrazol-5-yl]amino}-5-methoxy-1,2-benzoxazol-3-yl)-2,6-dimethoxybenzene-1-sulfonamide]: the Ki in test [1] is 130 nM; at KAT5 Full length enzyme, 871 nM; at KAT6A Full length enzyme it was 10.7 nM; at KAT8 Full length enzyme, greater than 13000 nM.

With `CCOc1cc(C)c(F)cc1S(=O)(=O)Nc1noc2cc(Nc3cc(C4CC4)n[nH]3)c(F)c(OC)c12` [Example 70, N-{6-[(3-cyclopropyl-1H-pyrazol-5-yl)amino]-5-fluoro-4-methoxy-1,2-benzoxazol-3-yl}-2-ethoxy-5-fluoro-4-methylbenzene-1-sulfonamide], the Ki was found to be 16.4 nM in test [1], 280 nM on KAT5 Full length enzyme, 1.9 nM at KAT6A Full length enzyme and 3880 nM at KAT8 Full length enzyme.

With `CCc1cc(Nc2cc3onc(NS(=O)(=O)c4c(OC)cccc4OC)c3cc2OC)nn1C` [Example 73, N-{6-[(5-ethyl-1-methyl-1H-pyrazol-3-yl)amino]-5-methoxy-1,2-benzoxazol-3-yl}-2,6-dimethoxybenzene-1-sulfonamide], the Ki was 31.3 nM in test [1], 287 nM on KAT5 Full length enzyme, 0.7 nM at KAT6A Full length enzyme and 4330 nM on KAT8 Full length enzyme.

For `CCn1nc(Nc2cc3onc(NS(=O)(=O)c4c(OC)cccc4OC)c3cc2OC)cc1C` [Example 74, N-{6-[(1-ethyl-5-methyl-1H-pyrazol-3-yl)amino]-5-methoxy-1,2-benzoxazol-3-yl}-2,6-dimethoxybenzene-1-sulfonamide], the Ki is 483 nM in test [1], 2160 nM on KAT5 Full length enzyme, 5.2 nM at KAT6A Full length enzyme and greater than 13000 nM at KAT8 Full length enzyme.

On to `CCn1cnc(Nc2cc3onc(NS(=O)(=O)c4c(OC)cccc4OC)c3cc2OC)c1` [Example 75, N-{6-[(1-ethyl-1H-imidazol-4-yl)amino]-5-methoxy-1,2-benzoxazol-3-yl}-2,6-dimethoxybenzene-1-sulfonamide], for which the Ki in test [1] was 501 nM; at KAT5 Full length enzyme, 2210 nM; at KAT6A Full length enzyme, 22.3 nM; on KAT8 Full length enzyme, greater than 11200 nM.

For `CCOc1cc(F)ccc1S(=O)(=O)Nc1noc2cc(Nc3cc(C4CC4)n[nH]3)c(F)c(OC)c12` [Example 76, N-{6-[(3-cyclopropyl-1H-pyrazol-5-yl)amino]-5-fluoro-4-methoxy-1,2-benzoxazol-3-yl}-2-ethoxy-4-fluorobenzene-1-sulfonamide], the Ki is 92 nM in test [1], 1160 nM on KAT5 Full length enzyme, 11.1 nM on KAT6A Full length enzyme and greater than 13000 nM at KAT8 Full length enzyme.

Consider `COc1cccc(OC2CC2)c1S(=O)(=O)Nc1noc2cc(Nc3cc(C4CC4)n[nH]3)c(F)c(OC)c12` [Example 80, 2-(cyclopropyloxy)-N-{6-[(5-cyclopropyl-1H-pyrazol-3-yl)amino]-5-fluoro-4-methoxy-1,2-benzoxazol-3-yl}-6-methoxybenzene-1-sulfonamide], for which the Ki in test [1] turned out to be 32.3 nM; at KAT5 Full length enzyme, 1450 nM; at KAT6A Full length enzyme it was 3.8 nM; on KAT8 Full length enzyme, 7760 nM.

On to `COc1cccc(F)c1S(=O)(=O)Nc1noc2cc(Nc3cc(C4CC4)n[nH]3)c(F)c(OC)c12` [Example 81, N-{6-[(3-cyclopropyl-1H-pyrazol-5-yl)amino]-5-fluoro-4-methoxy-1,2-benzoxazol-3-yl}-2-fluoro-6-methoxybenzene-1-sulfonamide], for which the Ki in test [1] was 31.6 nM; at KAT5 Full length enzyme, 336 nM; on KAT6A Full length enzyme, 3.5 nM; on KAT8 Full length enzyme, greater than 13000 nM.

Regarding `COc1cc2c(NS(=O)(=O)c3c(OC)cccc3OC)noc2cc1Nc1cc(C2CCCC2)n[nH]1` [Example 85, N-{6-[(3-cyclopentyl-1H-pyrazol-5-yl)amino]-5-methoxy-1,2-benzoxazol-3-yl}-2,6-dimethoxybenzene-1-sulfonamide], the Ki in test [1] worked out at 33.4 nM; on KAT5 Full length enzyme it was 225 nM; at KAT6A Full length enzyme, 4.7 nM; at KAT8 Full length enzyme it was 3380 nM.

These data come from patent US20250122183A1 (Pfizer Inc., priority 2023, published 2025).
